# Data taken from patent US10030016B2 (Sunesis Pharmaceuticals, Inc., priority 2009, dated 2018).
# Counter-ions that a name gives are not always drawn. Like-named read-outs stand apart in the source and are kept apart here.
# How the values were obtained:
# [1] = system: phospho-akt (Thr308) in PC-3 cells; test: Inhibition of phospho-akt (Thr308) in PC-3 cells, MSD phospho-akt 308 ELISA kit; format: cell-based; conditions: Homo sapiens, 2 hours, no serum, read-out: EC50
# Method in brief: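 Serum-free 2 h compound exposure of overnight-seeded PC-3 cells, threefold dilution series; lysates analysed on blocked MSD plates (3% BSA) for Thr308-phosphorylated Akt, normalised between DMSO and 5 μM wortmannin wells.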
# [2] = biological target: PDK1 (Homo sapiens (Human), UniProt O15530); test: PDK1 kinase assay (coupled PDK1/AKT/FAM-crosstide assay, IMAP fluorescence polarization); format: biochemical
# Chain of PDK1 (O15530 51-359): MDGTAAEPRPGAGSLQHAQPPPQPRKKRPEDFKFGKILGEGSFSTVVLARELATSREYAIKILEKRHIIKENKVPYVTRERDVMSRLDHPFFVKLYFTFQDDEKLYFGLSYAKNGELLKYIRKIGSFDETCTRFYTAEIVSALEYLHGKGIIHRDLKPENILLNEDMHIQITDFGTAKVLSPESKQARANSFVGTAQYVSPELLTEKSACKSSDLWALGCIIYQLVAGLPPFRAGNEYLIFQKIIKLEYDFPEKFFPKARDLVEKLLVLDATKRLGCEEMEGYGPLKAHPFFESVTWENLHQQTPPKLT
# Method in brief: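 GST-tagged human PDK1 (aa 51-359, 0.75 nM) from insect cells activated unphosphorylated GST-AKT2 (aa 140-467–PIFtide fusion, 10 nM), which phosphorylated 100 nM FAM-crosstide; 40 μM ATP, pH 7.2 Tris/MgCl2, 30 min at 25° C. IMAP fluorescence polarization read-out; ΔmP versus compound concentration fitted with a 4-parameter curve.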
# [3] = inhibition of P308 Akt in PC-3 cells, MSD
# [4] = inhibition of phospo-PDK1 in vitro
# [5] = inhibition of P308 Akt in PC-3 cells using MSD
"EC50 [1, 3] [nM]","IC50 [2, 4] [nM]","EC50 [1, 5] [nM]",IC50 ([2]; inhibition of PDK1 in vitro) [nM],SMILES,other results
> 10000,100 to 1000,–,–,"Nc1ncnc2ccc(-c3ccc(CNc4ncccc4C(=O)NCc4cc(F)ccc4F)s3)cc12 [Example 3.6, 2-({[5-(4-aminoquinazolin-6-yl)thiophen-2-yl]methyl}amino)-N-(2,5-difluorobenzyl)pyridine-3-carboxamide]",–
1000 to 10000,100 to 1000,–,–,"C[C@H](NC(=O)c1cccnc1NCc1ccc(-c2ccc3ncnc(N)c3c2)s1)c1ccc(F)cn1 [Example 3.66, 2-({[5-(4-aminoquinazolin-6-yl)thiophen-2-yl]methyl}amino)-N-[(1S)-1-(5-fluoropyridin-2-yl)ethyl] pyridine-3-carboxamide (TFA salt)]",–
–,–,< 1000,< 100,"Nc1ncc(-c2ccc(CNc3ncc(C(F)(F)F)cc3C(=O)Nc3ccc(F)cc3)cc2)nc1CCC1CCNC1 (stereo not drawn) [Example 76, 2-{4-[5-Amino-6-(2-pyrrolidin-3-yl-ethyl)-pyrazin-2-yl]-benzylamino}-N-(4-fluoro-phenyl)-5-trifluoromethyl-nicotinamide]",–
< 1000,< 100,–,–,"CCOC(=O)Nc1n[nH]c2ncc(-c3ccc(CNc4ncc(C#N)nc4C(=O)N[C@@H](C)c4ccc(F)c(F)c4)cc3)cc12 [Example 36, (S)-ethyl 5-(4-((5-cyano-3-(1-(3,4-difluorophenyl)ethylcarbamoyl)pyrazin-2-ylamino)methyl)phenyl)-1H-pyrazolo[3,4-b]pyridin-3-ylcarbamate]",–
–,–,< 1000,< 100,"C[C@H](NC(=O)c1cc(C#N)cnc1NCc1ccc(-c2cnc3[nH]nc(CCCN(C)C)c3c2)cc1)c1ccc(F)cc1 [Example 149, (S)-5-cyano-2-(4-(3-(3-(dimethylamino)propyl)-1H-pyrazolo[3,4-b]pyridin-5-yl)benzyl-amino)-N-(1-(4-fluorophenyl)ethyl) nicotinamide]",–
–,–,> 10000,< 100,"C[C@H](NC(=O)c1cc(C#N)cnc1NCc1ccc(-c2cnc(N)c(C(=O)O)n2)cc1)c1ccc(F)cc1 [Example 207, (S)-3-amino-6-(4-((5-cyano-3-(1-(4-fluorophenyl)ethylcarbamoyl)pyridin-2-ylamino)methyl)phenyl)-pyrazine-2-carboxylic acid]",–
< 1000,< 100,–,–,"O=C1Nc2cc(OCCNc3ncccc3C(=O)NCc3ccc(F)cc3)ccc2/C1=C/c1cnc[nH]1 [Example 23, (Z)-2-(2-(3-((1H-imidazol-5-yl)methylene)-2-oxoindolin-6-yloxy)ethylamino)-N-(4-fluorobenzyl)nicotinamide]",–
1000 to 10000,100 to 1000,–,–,"O=C(NCc1ccc(F)c(F)c1)c1cccnc1NCc1nc(-c2c[nH]c3ncccc23)cs1 [Ex. 6.11, N-(3,4-difluorobenzyl)-2-({[4-(1H-pyrrolo[2,3-b]pyridin-3-yl)-1,3-thiazol-2-yl]methyl}amino) pyridine-3-carboxamide]",–
< 1000,< 100,–,–,"N#Cc1cnc(NCc2ccc(-c3ccc4ncnc(N)c4c3)s2)c(C(=O)NCc2ccc(F)cc2)n1 [Example 3.83, 3-(((5-(4-aminoquinazolin-6-yl)thiophen-2-yl)methyl)amino)-6-cyano-N-(4-fluorobenzyl)pyrazine-2-carboxamide (TFA salt)]",–
–,–,< 1000,< 100,"Nc1n[nH]c2ncc(-c3ccc(CNc4ncc(C(F)(F)F)cc4C(=O)NCc4ccc(F)c(F)c4)cc3)cc12 [Example 132, 2-(4-(3-amino-1H-pyrazolo [3,4-b]pyridin-5-yl)benzylamino)-N-(3,4-difluorobenzyl)-5-(trifluoromethyl) nicotinamide]",–
–,100 to 1000,–,–,"Cc1ccc(CNC(=O)c2cccnc2NCc2ccc(-c3ccc4ncnc(N)c4c3)s2)o1 [Example 3.17, 2-({[5-(4-aminoquinazolin-6-yl)thiophen-2-yl]methyl}amino)-N-[(5-methylfuran-2-yl)methyl] pyridine-3-carboxamide (TFA salt)]","EC50 ([1]; PC-3, 2 h, inhibition of P308 Akt in PC-3 cells, MSD): > 10000 nM"
> 10000,> 5000,–,–,"C[C@H](NC(=O)c1cccnc1NCc1ccc(-c2ccc3ncc4c(c3c2)n(C)c(=O)n4C)s1)c1ccc(F)cc1 [Example 2.17, (S)-2-(((5-(1,3-dimethyl-2-oxo-2,3-dihydro-1H-imidazo(4,5-c]quinolin-8-yl)thiophen-2-yl)methyl)amino)-N-(1-(4-fluoro-phenyl)ethyl)nicotinamide]",–
1000 to 10000,< 100,–,–,"Nc1ncnc2ccc(-c3ccc(CNc4nccnc4C(=O)NCc4ccc(F)cc4)s3)cc12 [Example 3.68, 3-({[5-(4-aminoquinazolin-6-yl)thiophen-2-yl]methyl}amino)-N-(4-fluorobenzyl) pyrazine-2-carboxamide (TFA salt)]",–
1000 to 10000,< 100,–,–,"C[C@H](NC(=O)c1cccnc1NCc1ccc(-c2cn(C)c3ncnc(N)c23)cc1)c1ccc(F)c(F)c1 [Example 2.38, 2-[4-(4-Amino-7-methyl-7H-pyrrolo[2,3-d]pyrimidin-5-yl)-benzylamino]-N-[(S)-1-(3,4-difluoro-phenyl)-ethyl]-nicotinamide]",–
–,–,–,100 to 1000,"C[C@H](NC(=O)c1cc(C#N)cnc1NCc1ccc(-c2ccc(C(N)=O)nc2)cc1)c1ccc(F)cc1 [Example 114, (S)-5-(4-((5-cyano-3-(1-(4-fluorophenyl)ethylcarbamoyl)pyridin-2-ylamino)methyl)phenyl)picolinamide]","EC50 ([1]; PC-3, 2 h, inhibition of P308 Akt in PC-3 cells using MSD): > 10000 nM"
–,–,1000 to 10000,> 5000,"Nc1n[nH]c2ncc(-c3ccc(CNc4ncc(C(F)(F)F)cc4C(=O)NC4CCC(F)(F)CC4)cc3)cc12 [Example 284, 2-(4-(3-amino-1H-pyrazolo [3,4-b]pyridin-5-yl)benzylamino)-N-(4,4-difluorocyclohexyl)-5-(trifluoromethyl)nicotinamide]",–
–,–,< 1000,< 100,"C[C@H](NC(=O)c1nc(C#N)cnc1N[C@H](C)c1ccc(-c2c[nH]c3ncnc(N)c23)cc1)c1ccc(F)c(F)c1 [Example 402, 3-((R)-1-(4-(4-amino-7H-pyrrolo[2,3-d]pyrimidin-5-yl)phenyl)ethylamino)-6-cyano-N-((S)-1-(3,4-difluorophenyl)ethyl)pyrazine-2-carboxamide]",–
1000 to 10000,< 100,–,–,"Nc1ncnc2ccc(-c3ccc(CNc4nc(Cl)cc5ncn(Cc6ccc(F)c(F)c6)c(=O)c45)s3)cc12 [Ex. 7.17, 5-({[5-(4-aminoquinazolin-6-yl)thiophen-2-yl]methyl}amino)-7-chloro-N-3-(3,4-difluorobenzyl)pyrido [4,3-d]pyrimidin-4(3H)-one]",–
–,–,1000 to 10000,100 to 1000,"C[C@H](NC(=O)c1cc(C#N)cnc1Nc1ccc(-c2c[nH]c3ncnc(N)c23)cc1)c1ccc(F)cc1 [Example 436, (S)-2-(4-(4-amino-7H-pyrrolo[2,3-d]pyrimidin-5-yl)phenylamino)-5-cyano-N-(1-(4-fluorophenyl)ethyl)nicotinamide]",–
1000 to 10000,100 to 1000,–,–,"Nc1ncnc2ccc(-c3ccc(CNc4ncccc4C(=O)NCc4ccccc4)s3)cc12 [Example 3.56, 2-({[5-(4-aminoquinazolin-6-yl)thiophen-2-yl]methyl}amino)-N-benzylpyridine-3-carboxamide (TFA salt)]",–
–,–,< 1000,< 100,"Cn1cc(-c2ccc(CNc3ncc(C(F)(F)F)cc3C(=O)Nc3ccc(F)cc3)cc2)c2c(N)ncnc21 [Example 323, 2-(4-(4-amino-7-methyl-7H-pyrrolo[2,3-d]pyrimidin-5-yl)benzylamino)-N-(4-fluorophenyl)-5-(trifluoromethyl)nicotinamide]",–
